Results as given in article PMC12251549, “Engineering a Radiohybrid PSMA Ligand with an Albumin-Binding Moiety and Pharmacokinetic Modulation via an Albumin-Binding Competitor for Radiotheranostics” (Molecules, 2025).

Legend:
[1] = Biodistribution after intravenous co-injection of [125I]5 and [67Ga]Ga-PSMA-617 (Table S1); type: in vivo, normal mice (ddY); conditions: normal mice; for Biodistribution of radioactivity: Blood / Biodistribution of radioactivity: Bone / Biodistribution of radioactivity: Brain / Biodistribution of radioactivity: Heart / Biodistribution of radioactivity: Kidney / Biodistribution of radioactivity: L. Intestine / Biodistribution of radioactivity: Liver / Biodistribution of radioactivity: Lung / Biodistribution of radioactivity: Muscle / Biodistribution of radioactivity: Neck / Biodistribution of radioactivity: Pancreas / Biodistribution of radioactivity: S. Intestine / Biodistribution of radioactivity: Spleen / Biodistribution of radioactivity: Stomach: i.v.
Protocol: (§1) [^67Ga]Ga-PSMA-617 (37 kBq) and [^125I]5 (37 kBq) or [^125I]5 (37 kBq) and [^211At]6 (37 kBq) were intravenously co-administered into three or four normal mice at each timepoint (6 weeks male ddY mice, 28–30 g, Japan SLC, Inc., Hamamatsu, Japan). Mice were sacrificed at 10 min, 1 h, 4 h, and 24 h ([^67Ga]Ga-PSMA-617 and [^125I]5) or at 10 min, 1 h, 4 h, 12 h, and 24 h ([^125I]5 and [^211At]6) postinjection of the radiolabeled compounds. Tissues of interest were removed and weighed, and the radioactivity of ^67Ga and ^125I and ^125I and ^211At were determined with an auto well gamma counter (ARC-8001) and corrected for background radiation as described in the Cellular Uptake Experiments Section. To determine the amount and routes of the radioactivity excreted from the body for 24 h after the injection of radiolabeled compounds, mice were housed in metabolic cages (METABOLICA, SUGIYAMA-GEN Co., Ltd., Tokyo, Japan). Data are shown as the percentage of injected dose per gram of tissues (%ID/g) or %ID.

[2] = Biodistribution after intravenous co-injection of [125I]5 and [211At]6 (Table S2); type: in vivo, normal mice (ddY); conditions: normal mice
Protocol: as §1

- Excretion in feces ([1]; 24 h postinjection): 2.3 ± 0.3 %ID
- Excretion in urine ([1]; 24 h postinjection): 10.3 ± 0.7 %ID
- Blood retention ([1]; compared with [67Ga]Ga-PSMA-617): significantly prolonged blood retention
- Biodistribution of radioactivity: Blood ([1]; 10 min after injection): 26.76 (0.56) % injected dose per gram
- Biodistribution of radioactivity: Bone ([1]; 10 min after injection): 2.56 (0.45) % injected dose per gram
- Biodistribution of radioactivity: Brain ([1]; 10 min after injection): 0.66 (0.14) % injected dose per gram
- Biodistribution of radioactivity: Heart ([1]; 10 min after injection): 4.87 (0.63) % injected dose per gram
- Biodistribution of radioactivity: Kidney ([1]; 10 min after injection): 10.29 (0.97) % injected dose per gram
- Biodistribution of radioactivity: L. Intestine ([1]; 10 min after injection): 1.10 (0.07) % injected dose per gram
- Biodistribution of radioactivity: Liver ([1]; 10 min after injection): 3.89 (0.34) % injected dose per gram
- Biodistribution of radioactivity: Lung ([1]; 10 min after injection): 10.56 (0.97) % injected dose per gram
- Biodistribution of radioactivity: Muscle ([1]; 10 min after injection): 0.89 (0.02) % injected dose per gram
- Biodistribution of radioactivity: Neck ([1]; 10 min after injection): 0.04 (0.01) % injected dose
- Biodistribution of radioactivity: Pancreas ([1]; 10 min after injection): 3.05 (0.20) % injected dose per gram
- Biodistribution of radioactivity: S. Intestine ([1]; 10 min after injection): 2.11 (0.10) % injected dose per gram
- Biodistribution of radioactivity: Spleen ([1]; 10 min after injection): 3.22 (0.38) % injected dose per gram
- Biodistribution of radioactivity: Stomach ([1]; 10 min after injection): 0.78 (0.10) % injected dose
- Biodistribution of radioactivity: Blood ([1]; 1 h after injection): 16.99 (1.80) % injected dose per gram
- Biodistribution of radioactivity: Bone ([1]; 1 h after injection): 2.18 (0.26) % injected dose per gram
- Biodistribution of radioactivity: Brain ([1]; 1 h after injection): 0.44 (0.19) % injected dose per gram
- Biodistribution of radioactivity: Heart ([1]; 1 h after injection): 4.00 (0.35) % injected dose per gram
- Biodistribution of radioactivity: Kidney ([1]; 1 h after injection): 6.22 (0.27) % injected dose per gram
- Biodistribution of radioactivity: L. Intestine ([1]; 1 h after injection): 1.16 (0.18) % injected dose per gram
- Biodistribution of radioactivity: Liver ([1]; 1 h after injection): 2.67 (0.11) % injected dose per gram
- Biodistribution of radioactivity: Lung ([1]; 1 h after injection): 9.59 (2.25) % injected dose per gram
- Biodistribution of radioactivity: Muscle ([1]; 1 h after injection): 1.06 (0.06) % injected dose per gram
- Biodistribution of radioactivity: Neck ([1]; 1 h after injection): 0.03 (0.01) % injected dose
- Biodistribution of radioactivity: Pancreas ([1]; 1 h after injection): 2.30 (0.22) % injected dose per gram
- Biodistribution of radioactivity: S. Intestine ([1]; 1 h after injection): 2.02 (0.21) % injected dose per gram
- Biodistribution of radioactivity: Spleen ([1]; 1 h after injection): 2.01 (0.29) % injected dose per gram
- Biodistribution of radioactivity: Stomach ([1]; 1 h after injection): 0.75 (0.08) % injected dose
- Biodistribution of radioactivity: Blood ([1]; 4 h after injection): 14.52 (0.22) % injected dose per gram
- Biodistribution of radioactivity: Bone ([1]; 4 h after injection): 1.57 (0.64) % injected dose per gram
- Biodistribution of radioactivity: Brain ([1]; 4 h after injection): 0.30 (0.03) % injected dose per gram
- Biodistribution of radioactivity: Heart ([1]; 4 h after injection): 3.97 (0.22) % injected dose per gram
- Biodistribution of radioactivity: Kidney ([1]; 4 h after injection): 6.93 (0.24) % injected dose per gram
- Biodistribution of radioactivity: L. Intestine ([1]; 4 h after injection): 2.03 (0.07) % injected dose per gram
- Biodistribution of radioactivity: Liver ([1]; 4 h after injection): 2.76 (0.11) % injected dose per gram
- Biodistribution of radioactivity: Lung ([1]; 4 h after injection): 8.37 (0.62) % injected dose per gram
- Biodistribution of radioactivity: Muscle ([1]; 4 h after injection): 1.41 (0.07) % injected dose per gram
- Biodistribution of radioactivity: Neck ([1]; 4 h after injection): 0.03 (0.00) % injected dose
- Biodistribution of radioactivity: Pancreas ([1]; 4 h after injection): 2.33 (0.13) % injected dose per gram
- Biodistribution of radioactivity: S. Intestine ([1]; 4 h after injection): 1.99 (0.14) % injected dose per gram
- Biodistribution of radioactivity: Spleen ([1]; 4 h after injection): 1.59 (0.35) % injected dose per gram
- Biodistribution of radioactivity: Stomach ([1]; 4 h after injection): 0.69 (0.08) % injected dose
- Biodistribution of radioactivity: Blood ([1]; 24 h after injection): 9.84 (0.85) % injected dose per gram
- Biodistribution of radioactivity: Bone ([1]; 24 h after injection): 1.57 (0.22) % injected dose per gram
- Biodistribution of radioactivity: Brain ([1]; 24 h after injection): 0.30 (0.03) % injected dose per gram
- Biodistribution of radioactivity: Heart ([1]; 24 h after injection): 2.85 (0.36) % injected dose per gram
- Biodistribution of radioactivity: Kidney ([1]; 24 h after injection): 7.37 (0.99) % injected dose per gram
- Biodistribution of radioactivity: L. Intestine ([1]; 24 h after injection): 1.15 (0.35) % injected dose per gram
- Biodistribution of radioactivity: Liver ([1]; 24 h after injection): 1.59 (0.34) % injected dose per gram
- Biodistribution of radioactivity: Lung ([1]; 24 h after injection): 6.18 (0.83) % injected dose per gram
- Biodistribution of radioactivity: Muscle ([1]; 24 h after injection): 1.08 (0.11) % injected dose per gram
- Biodistribution of radioactivity: Neck ([1]; 24 h after injection): 0.02 (0.00) % injected dose
- Biodistribution of radioactivity: Pancreas ([1]; 24 h after injection): 1.66 (0.46) % injected dose per gram
- Biodistribution of radioactivity: S. Intestine ([1]; 24 h after injection): 1.11 (0.31) % injected dose per gram
- Biodistribution of radioactivity: Spleen ([1]; 24 h after injection): 1.62 (0.16) % injected dose per gram
- Biodistribution of radioactivity: Stomach ([1]; 24 h after injection): 0.67 (0.13) % injected dose
- In vivo dehalogenation (radioactivity in stomach and neck) [2]: minimal deiodination or deastatination
- Biodistribution of radioactivity: Blood ([2]; i.v., 10 min after injection): 24.34 (0.27) % injected dose per gram
- Biodistribution of radioactivity: Bone ([2]; i.v., 10 min after injection): 2.42 (0.54) % injected dose per gram
- Biodistribution of radioactivity: Brain ([2]; i.v., 10 min after injection): 0.50 (0.04) % injected dose per gram
- Biodistribution of radioactivity: Heart ([2]; i.v., 10 min after injection): 4.48 (0.24) % injected dose per gram
- Biodistribution of radioactivity: Kidney ([2]; i.v., 10 min after injection): 5.27 (0.62) % injected dose per gram
- Biodistribution of radioactivity: L. Intestine ([2]; i.v., 10 min after injection): 0.84 (0.07) % injected dose per gram
SMILES: O=C([O-])CN1CCN(CC(=O)[O-])CCN(CC(=O)NC(CCCCNC(=O)CCCc2ccc([125I])cc2)C(=O)NCC2CCC(C(=O)NC(Cc3ccc4ccccc4c3)C(=O)NCCCCC(NC(=O)NC(CCC(=O)O)C(=O)O)C(=O)O)CC2)CCN(CC(=O)[O-])CC1.[Ga+3] (stereo not drawn) [[^125I]5]
